Molecules are shown by their SMILES.

In experiment [1] the test system is human breast cancer cells MCF-7. As to the kind of experiment: MTT growth inhibition, MCF-7 cells. As to conditions: MCF7, 72 h after treatment, read-out: Drug concentration (IC50) at which 50% cancer cells survived. In kind it is cell-based. From the text: (§1) Cell lines and cell culture: human lung cancer cells A549 and H460, human breast cancer cells MCF-7 and MDA-MB-231, human gastric cancer cells BGC-823, human prostate cancer cells PC-3, human chronic leukemia cells K562, human lymphoma cells U937, human liver cancer cells SMMC7721 and HepG2, human colon cancer cells HT29, human pancreatic cancer cells PANC-1 and BxPC3, human cervical cancer Hela cell lines, human brain tumor cells Daoy, human neuroma cells D54 and human oral epidermoid cancer cells KBV200 line with strong drug resistance, mouse melanoma cells B16, and highly metastatic Lewis lung cancer cell lines were purchased from American Type Culture Collection of the U.S. These cells were cultured with DMEM and RPMI-1640 culture solutions separately.
(§2) The procedure was as follows:
(§3) (1) 0.25% trypsin was used to digest cancer cells in a logarithmic growth phase to prepare a single-cell suspension, the concentration of cells was adjusted to 5×10^4/mL, and the adjusted suspension was inoculated into a 96-well culture plate with 100 μl per well;
(§4) (2) The culture plate was transferred into a 37° C. incubator with a saturated humidity and 5% of CO2 and cultured for 24 h; the compounds and the intermediates thereof obtained in embodiments 1-7 and the compound as represented by formula (IIIa) or the positive control anti-cancer drug with the concentration of 1-1000 μM/L were added to enable the final concentration to be 0.1-1500 μM/L. Control wells (only added with 200 μl of cell suspension) and drug-free blank control wells (containing the solvent of 0.01% DMSO) were set, each group included 8 wells, and the plate was placed into the 37° C. incubator with saturated humidity and 5% of CO2 for culturing;
(§5) (3) The 96-well plate was taken out at 48 h and 72 h after dosing, the original culture medium was carefully removed by suction, 100 μl of serum-free DMEM culture medium and 10 μl of MTT (5 mg/mL) solution were added in each well. The plate was continuously cultured for another 4 h and then the culture was terminated;
(§6) (4) The supernatant in the wells was carefully removed by suction, each well was added with 150 μl of DMSO and shaked at room temperature for 10-15 min to fully dissolve crystals.
(§7) (5) Colorimetric analysis: the wavelength was selected as 570 nm, the light absorbance (A value) of each well was determined on the microplate reader and the results were recorded; the experiment was repeated for three times;
(§8) (6) the experimental results were calculated according to the following formula: relative survival rate=(A value of each experimental group/A value of cell control group)×100%
(§9) Calculation of median-effect concentration (IC50, namely the drug concentration at which the inhibition rate is 50%, also known as half inhibitory concentration):
(§10) IC50 of the detected component was calculated by using a regression equation.

Experiment [2] deals with human pancreatic cancer cells PANC-1. As to the kind of experiment: MTT growth inhibition, PANC-1 cells. The format is cell-based. The following applies: 72 h after treatment, read-out: Drug concentration (IC50) at which 50% cancer cells survived.
From the text: as §1, §2, §3, §4, §5, §6, §7, §8, §9, §10

Experiment [3] deals with human lung cancer cells H460. As to the kind of experiment: MTT growth inhibition, H460 cells. The format is cell-based. The following applies: NCI-H460, 72 h after treatment, read-out: Drug concentration (IC50) at which 50% cancer cells survived.
From the text: as §1, §2, §3, §4, §5, §6, §7, §8, §9, §10

Experiment [4] has as its system human colon cancer cells HT29. As to the kind of experiment: MTT growth inhibition, HT29 cells. The format is cell-based. As to conditions: HT-29, 72 h after treatment, read-out: Drug concentration (IC50) at which 50% cancer cells survived.
From the text: as §1, §2, §3, §4, §5, §6, §7, §8, §9, §10

Experiment [5] relates to human prostate cancer cells PC-3. Nature of the experiment: MTT growth inhibition, PC-3 cells. In kind it is cell-based. The following applies: 72 h after treatment, read-out: Drug concentration (IC50) at which 50% cancer cells survived.
From the text: as §1, §2, §3, §4, §5, §6, §7, §8, §9, §10

For experiment [6], the system named is human oral epidermoid cancer cells KBV200. Nature of the experiment: MTT growth inhibition, KBV200 cells. The format is cell-based. As to conditions: 72 h after treatment, read-out: Drug concentration (IC50) at which 50% cancer cells survived.
From the text: as §1, §2, §3, §4, §5, §6, §7, §8, §9, §10

Experiment [7] relates to human gastric cancer cells BGC-823. Nature of the experiment: MTT growth inhibition, BGC-823 cells. In kind it is cell-based. As to conditions: 72 h after treatment, read-out: Drug concentration (IC50) at which 50% cancer cells survived.
From the text: as §1, §2, §3, §4, §5, §6, §7, §8, §9, §10

Experiment [8] relates to human chronic leukemia cells K562. As to the kind of experiment: MTT growth inhibition, K562 cells. The format is cell-based. The following applies: 72 h after treatment, read-out: Drug concentration (IC50) at which 50% cancer cells survived.
From the text: as §1, §2, §3, §4, §5, §6, §7, §8, §9, §10

The subject of experiment [9] is Caski human cervical cancer cells. As to the kind of experiment: MTT growth inhibition, Caski cells. The format is cell-based. The following applies: Ca-Ski, 72 h after treatment, read-out: Drug concentration (IC50) at which 50% cancer cells survived.
The subject of experiment [10] is highly metastatic Lewis lung cancer cell lines. Nature of the experiment: MTT growth inhibition, LLC cells. The format is cell-based, mouse. As to conditions: 72 h after treatment, read-out: Drug concentration (IC50) at which 50% cancer cells survived.
From the text: as §1, §2, §3, §4, §5, §6, §7, §8, §9, §10

Experiment [11] relates to human pancreatic cancer cells BxPC3. Nature of the experiment: MTT growth inhibition, BxPc3 cells. In kind it is cell-based. The following applies: 72 h after treatment, read-out: Drug concentration (IC50) at which 50% cancer cells survived.
From the text: as §1, §2, §3, §4, §5, §6, §7, §8, §9, §10

With `COc1cccc2c1C(=O)c1c(O)c3c(c(O)c1C2=O)C[C@@](O)(C(C)=O)C[C@@H]3O[C@H]1C[C@H](N)[C@H](O)[C@H](C)O1` [Daunorubicin, reference compound], the IC50 came to 58 µM in experiment [1]; 55 µM in experiment [2]; 63 µM in [3]; 63 µM in experiment [4]; 51 µM in experiment [5]; 1 µM in [6]. The IC50 in experiment [7] came out at 68 µM.
For the compound `COc1cc([C@@H]2c3cc4c(cc3[C@@H](O[C@@H]3O[C@@H]5CO[C@@H](C)O[C@H]5[C@H](O)[C@H]3O)[C@H]3COC(=O)[C@H]23)OCO4)cc(OC)c1O` [Etoposide, reference compound], the figures for the IC50 in [8] and in [9] were 85 µM and 89 µM, respectively.
Regarding `O=c1c(-c2ccc(O)cc2)coc2cc(O)cc(O)c12` [Genistein, reference compound], the IC50 in [7] stood at 135 µM.
`O=C1OC(=O)[C@H]2[C@@H]1[C@@H]1CC[C@H]2O1` [Norcantharidin, reference compound]: the IC50 in experiment [10] turned out to be 15 µM; in [11] it was 60 µM.

The record behind these values is patent US9518038B2, “Condensation product of theanine derivative and carboxylic acid coumarin derivative, its intermediate, preparation method and use thereof” (SHANDONG YINGDONG YINGHAO BIOTECHNOLOGY, INC., priority 2012, dated 2016).
